Results reported in patent US11090271B2, “Soft gelatin capsules containing hydroxypropyl beta cyclodextrin with high stability” (ALTERGON S.A., priority 2017, dated 2021).
Blank lines part the entries; values can stand above or below the molecule they belong to.

Experiments:
[1] = Water solubility of the active ingredient at room temperature; assay type: physicochemical; details: room temperature (20° C.)
Experimental: In a further embodiment, the active ingredient is a water-soluble one, i.e. it has a water solubility at room temperature (20° C.) higher than 0.1% w/v, preferably higher than 0.5% w/v, or more preferably higher than 1% w/v. […] According to this embodiment, the present invention is characterized as a soft gelatin capsule having inside a fill comprising a water-soluble active ingredient containing nitrogen, wherein the wall of said capsule comprises hydroxypropyl beta cyclodextrin (HPBCD) in an amount being: (a) less than 10% by weight on the weight of the wall and (b) sub-stoichiometric to form an inclusion complex with the active ingredient present in the fill.

[2] = Storage stability of aqueous diclofenac solutions complexed with HPBCD (colour); assay type: physicochemical
Experimental: Occasionally the complexation in cyclodextrin has been carried out to protect the active ingredients from degradation phenomena, however with modest results (International Journal of Photoenergy, 3, 2001, 205-211). […] Finally, storage stability tests were carried out with various aqueous solutions of diclofenac sodium entirely complexed with hydroxypropyl beta ciclodextrin (HPBCD), having the following composition: diclofenac sodium 40.6 mg; HPBCD 177.6 mg; purified water 782.4 mg.

water solubility [1]: about 1.9 % w/v
Molecule: diclofenac epolamine [DHEP]

colour of the solution ([2]; aqueous solution complexed in HPBCD, storage at 25° C.±2° C., 60±5% R.H.): amber colour
Molecule: O=C(O)Cc1ccccc1Nc1c(Cl)cccc1Cl [diclofenac]

colour of the solution ([2]; aqueous solution entirely complexed with HPBCD, 18 months at 30° C. and 65% R.H.): evident amber colour
Molecule: O=C(O)Cc1ccccc1Nc1c(Cl)cccc1Cl [diclofenac sodium]
